Test results reported in PubChem BioAssay (NCI).
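Exposure lasted 48 hours, with cells grown in 96-well plates and compounds tested at five concentrations. TGI marks complete inhibition of growth.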

Columns and labels:
Experiment in all cases: NCI-60 cell line screen, 48 h
786-0 renal = test system: 786-0 renal
A549 NSCLC = test system: A549 NSCLC
ACHN renal = test system: ACHN renal
CAKI-1 renal = test system: CAKI-1 renal
CCRF-CEM leukemia = test system: CCRF-CEM leukemia
COLO 205 colon = test system: COLO 205 colon
DLD-1 colon = test system: DLD-1 colon
DMS 114 small cell lung = test system: DMS 114 small cell lung
DMS 273 small cell lung = test system: DMS 273 small cell lung
EKVX NSCLC = test system: EKVX NSCLC
HCC-2998 colon = test system: HCC-2998 colon
HCT-15 colon = test system: HCT-15 colon
HL-60(TB) leukemia = test system: HL-60(TB) leukemia
HOP-18 NSCLC = test system: HOP-18 NSCLC
HOP-92 NSCLC = test system: HOP-92 NSCLC
HT29 colon = test system: HT29 colon
IGROV1 ovarian = test system: IGROV1 ovarian
K-562 leukemia = test system: K-562 leukemia
KM12 colon = test system: KM12 colon
KM20L2 colon = test system: KM20L2 colon
LOX IMVI melanoma = test system: LOX IMVI melanoma
LXFL 529 NSCLC = test system: LXFL 529 NSCLC
M14 melanoma = test system: M14 melanoma
M19-MEL melanoma = test system: M19-MEL melanoma
MALME-3M melanoma = test system: MALME-3M melanoma
MOLT-4 leukemia = test system: MOLT-4 leukemia
NCI-H23 lung = test system: NCI-H23 lung
NCI-H460 lung = test system: NCI-H460 lung
NCI-H522 lung = test system: NCI-H522 lung
OVCAR-3 ovarian = test system: OVCAR-3 ovarian
OVCAR-4 ovarian = test system: OVCAR-4 ovarian
OVCAR-5 ovarian = test system: OVCAR-5 ovarian
OVCAR-8 ovarian = test system: OVCAR-8 ovarian
RPMI-8226 leukemia = test system: RPMI-8226 leukemia
RXF 393 renal = test system: RXF 393 renal
SF-268 CNS = test system: SF-268 CNS
SF-295 CNS = test system: SF-295 CNS
SF-539 CNS = test system: SF-539 CNS
SK-MEL-2 melanoma = test system: SK-MEL-2 melanoma
SK-MEL-28 melanoma = test system: SK-MEL-28 melanoma
SK-MEL-5 melanoma = test system: SK-MEL-5 melanoma
SK-OV-3 ovarian = test system: SK-OV-3 ovarian
SN12C renal = test system: SN12C renal
SNB-19 CNS = test system: SNB-19 CNS
SNB-75 CNS = test system: SNB-75 CNS
SW-620 colon = test system: SW-620 colon
TK-10 renal = test system: TK-10 renal
U251 CNS = test system: U251 CNS
UACC-257 melanoma = test system: UACC-257 melanoma
UACC-62 melanoma = test system: UACC-62 melanoma
A498 renal = test system: A498 renal
HCT-116 colon = test system: HCT-116 colon
HOP-62 NSCLC = test system: HOP-62 NSCLC
NCI-H226 lung = test system: NCI-H226 lung
RXF-631 renal = test system: RXF-631 renal
SNB-78 CNS = test system: SNB-78 CNS
SR leukemia = test system: SR leukemia
UO-31 renal = test system: UO-31 renal

Measured: TGI

N/N=C1\c2ccccc2C2/C(=N\N)c3ccccc3C12 (stereo not given)
> 100 µM: 786-0 renal | A549 NSCLC | ACHN renal | CAKI-1 renal | CCRF-CEM leukemia | COLO 205 colon | DLD-1 colon | DMS 114 small cell lung | DMS 273 small cell lung | EKVX NSCLC | HCC-2998 colon | HCT-15 colon | HL-60(TB) leukemia | HOP-18 NSCLC | HOP-92 NSCLC | HT29 colon | IGROV1 ovarian | K-562 leukemia | KM12 colon | KM20L2 colon | LOX IMVI melanoma | LXFL 529 NSCLC | M14 melanoma | M19-MEL melanoma | MALME-3M melanoma | MOLT-4 leukemia | NCI-H23 lung | NCI-H460 lung | NCI-H522 lung | OVCAR-3 ovarian | OVCAR-4 ovarian | OVCAR-5 ovarian | OVCAR-8 ovarian | RPMI-8226 leukemia | RXF 393 renal | SF-268 CNS | SF-295 CNS | SF-539 CNS | SK-MEL-2 melanoma | SK-MEL-28 melanoma | SK-MEL-5 melanoma | SK-OV-3 ovarian | SN12C renal | SNB-19 CNS | SNB-75 CNS | SW-620 colon | TK-10 renal | U251 CNS | UACC-257 melanoma | UACC-62 melanoma

Cc1cc(Cc2cc(C)c(NC(=O)C(=O)C3C(=O)NC(=S)NC3=O)c(C(C)C)c2)cc(C(C)C)c1NC(=O)C(=O)C1C(=O)NC(=S)NC1=O
> 100 µM: 786-0 renal | A498 renal | A549 NSCLC | ACHN renal | CAKI-1 renal | CCRF-CEM leukemia | COLO 205 colon | DLD-1 colon | DMS 114 small cell lung | DMS 273 small cell lung | EKVX NSCLC | HCC-2998 colon | HCT-116 colon | HCT-15 colon | HL-60(TB) leukemia | HOP-18 NSCLC | HOP-62 NSCLC | HOP-92 NSCLC | HT29 colon | IGROV1 ovarian | K-562 leukemia | KM12 colon | KM20L2 colon | LOX IMVI melanoma | LXFL 529 NSCLC | M14 melanoma | M19-MEL melanoma | MALME-3M melanoma | MOLT-4 leukemia | NCI-H226 lung | NCI-H23 lung | NCI-H460 lung | NCI-H522 lung | OVCAR-3 ovarian | OVCAR-4 ovarian | OVCAR-5 ovarian | OVCAR-8 ovarian | RPMI-8226 leukemia | RXF 393 renal | RXF-631 renal | SF-268 CNS | SF-295 CNS | SK-MEL-28 melanoma | SK-OV-3 ovarian | SN12C renal | SNB-19 CNS | SNB-75 CNS | SNB-78 CNS | SR leukemia | SW-620 colon | TK-10 renal | U251 CNS | UACC-257 melanoma | UACC-62 melanoma | UO-31 renal
